Target: His-tagged recombinant human MER cytoplasmic domain (Homo sapiens (Human), UniProt Q12866)
Assay: MER Enzyme Assay (LanthaScreen Eu Kinase Binding, TR-FRET)
Settings: averaged IC50
Method: Compounds of Formula I were screened for their ability to inhibit MER kinase using Invitrogen's LanthaScreen™ Eu Kinase Binding technology. […] After a 60-minute incubation at 22° C., the reaction was measured using a PerkinElmer EnVision multimode plate reader via TR-FRET dual wavelength detection, and the percent of control (POC) was calculated using a ratiometric emission factor. […] The POC values are fit to a 4 parameter logistic curve and the IC50 value is point where the curve crosses 50 POC.

Sequence of His-tagged recombinant human MER cytoplasmic domain (Q12866 527-999): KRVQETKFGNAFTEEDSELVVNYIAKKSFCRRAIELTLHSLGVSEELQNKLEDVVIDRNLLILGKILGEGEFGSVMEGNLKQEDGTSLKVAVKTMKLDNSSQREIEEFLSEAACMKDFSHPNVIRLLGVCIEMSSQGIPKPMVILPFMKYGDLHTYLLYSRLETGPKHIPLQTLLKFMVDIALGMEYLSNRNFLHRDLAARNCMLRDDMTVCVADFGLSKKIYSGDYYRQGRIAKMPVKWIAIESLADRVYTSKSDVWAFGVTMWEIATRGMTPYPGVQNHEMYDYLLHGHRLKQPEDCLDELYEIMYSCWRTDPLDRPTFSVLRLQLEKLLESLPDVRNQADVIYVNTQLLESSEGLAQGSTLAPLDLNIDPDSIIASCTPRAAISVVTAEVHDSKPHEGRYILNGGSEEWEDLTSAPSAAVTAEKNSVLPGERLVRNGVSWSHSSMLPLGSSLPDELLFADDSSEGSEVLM

IC50 [µM] | Compound
< 0.01 | CNc1cc2c(cn1)c(-c1cnn(C)c1)nn2[C@H]1CC[C@@H](Oc2cccc(C)c2)CC1 [Example 366, N-methyl-3-(1-methyl-1H-pyrazol-4-yl)-1-((1s,4s)-4-(m-tolyloxy)cyclohexyl)-1H-pyrazolo[4,3-c]pyridin-6-amine]
< 0.01 | CCNc1cc2c(cn1)c(-c1cnn(C)c1)nn2[C@H]1CC[C@@H](Oc2ccc(C(=O)NC)cc2C(F)(F)F)CC1 [Example 392, 4-(((1s,4s)-4-(6-(ethylamino)-3-(1-methyl-1H-pyrazol-4-yl)-1H-pyrazolo[4,3-c]pyridin-1-yl)cyclohexyl)oxy)-N-methyl-3-(trifluoromethyl)benzamide]
< 0.01 | CCNc1cc2c(cn1)c(-c1ccn(C)c(=O)c1)nn2[C@H]1CC[C@@H](Oc2ccccc2F)CC1 [Example 398, 4-(6-(ethylamino)-1-((1s,4s)-4-(2-fluorophenoxy)cyclohexyl)-1H-pyrazolo[4,3-c]pyridin-3-yl)-1-methylpyridin-2(1H)-one]
< 0.01 | CCNc1cc2c(cn1)c(-c1cnn(C(C)(C)C#N)c1)nn2[C@H]1CC[C@@H](Oc2ccccc2F)CC1 [Example 400, 2-(4-(6-(ethylamino)-1-((1s,4s)-4-(2-fluorophenoxy)cyclohexyl)-1H-pyrazolo[4,3-c]pyridin-3-yl)-1H-pyrazol-1-yl)-2-methylpropanenitrile]
< 0.01 | CCNc1cc2c(cn1)c(-c1cnn(C(CO)CO)c1)nn2[C@H]1CC[C@@H](Oc2cc(F)ccc2F)CC1 [Example 416, 2-(4-(1-((1s,4s)-4-(2,5-difluorophenoxy)cyclohexyl)-6-(ethylamino)-1H-pyrazolo[4,3-c]pyridin-3-yl)-1H-pyrazol-1-yl)propane-1,3-diol]
< 0.01 | CCNc1cc2c(cn1)c(-c1cnn(C(CO)CO)c1)nn2[C@H]1CC[C@@H](Oc2ccc(F)c(F)c2)CC1 [Example 418, 2-(4-(1-((1s,4s)-4-(3,4-difluorophenoxy)cyclohexyl)-6-(ethylamino)-1H-pyrazolo[4,3-c]pyridin-3-yl)-1H-pyrazol-1-yl)propane-1,3-diol]
< 0.01 | CCNc1cc2c(cn1)c(-c1cnn(C3CS(=O)(=O)C3)c1)nn2[C@H]1CC[C@@H](Oc2ccccc2F)CC1 [Example 426, 3-(4-(6-(ethylamino)-1-((1s,4s)-4-(2-fluorophenoxy)cyclohexyl)-1H-pyrazolo[4,3-c]pyridin-3-yl)-1H-pyrazol-1-yl)thietane 1,1-dioxide]

Further lines, the compound ahead of its results:

Compound | IC50 [µM]
CCNc1cc2c(cn1)c(-c1cn[nH]c1)nn2[C@H]1CC[C@@H](Oc2ccccc2F)CC1 [Example 401, N-ethyl-1-((1s,4s)-4-(2-fluorophenoxy)cyclohexyl)-3-(1H-pyrazol-4-yl)-1H-pyrazolo[4,3-c]pyridin-6-amine] | < 0.01
CCNc1cc2c(cn1)c(-c1cnn(C(CO)CO)c1)nn2[C@H]1CC[C@@H](Oc2ccccc2F)CC1 [Example 411, 2-(4-(6-(ethylamino)-1-((1s,4s)-4-(2-fluorophenoxy)cyclohexyl)-1H-pyrazolo[4,3-c]pyridin-3-yl)-1H-pyrazol-1-yl)propane-1,3-diol] | < 0.01
CCNc1cc2c(cn1)c(-c1cnn(C(CO)CO)c1)nn2[C@H]1CC[C@@H](Oc2cccc(F)c2)CC1 [Example 412, 2-(4-(6-(ethylamino)-1-((1s,4s)-4-(3-fluorophenoxy)cyclohexyl)-1H-pyrazolo[4,3-c]pyridin-3-yl)-1H-pyrazol-1-yl)propane-1,3-diol] | < 0.01
CCNc1cc2c(cn1)c(-c1cnn(C(CO)CO)c1)nn2[C@H]1CC[C@@H](Oc2ccc(F)cc2)CC1 [Example 413] | < 0.01
CCNc1cc2c(cn1)c(-c1cnn(C3CCS(=O)(=O)C3)c1)nn2[C@H]1CC[C@@H](Oc2ccccc2F)CC1 (stereo partly drawn) [Example 425, 3-(4-(6-(ethylamino)-1-((1s,4s)-4-(2-fluorophenoxy)cyclohexyl)-1H-pyrazolo[4,3-c]pyridin-3-yl)-1H-pyrazol-1-yl)tetrahydrothiophene 1,1-dioxide] | < 0.01
